Source: US20220220135A1 (BAR-ILAN UNIVERSITY, priority 2019, published 2022)

What was measured:
NTPDase1 = target: T1, NTPDase1 (Homo sapiens, UniProt P49961); assay: Inhibition of ATPase activity of human NTPDase1; format: biochemical; conditions: analogue at 100 μM; ATP 100 μM as substrate
T1 sequence (P49961 1-510): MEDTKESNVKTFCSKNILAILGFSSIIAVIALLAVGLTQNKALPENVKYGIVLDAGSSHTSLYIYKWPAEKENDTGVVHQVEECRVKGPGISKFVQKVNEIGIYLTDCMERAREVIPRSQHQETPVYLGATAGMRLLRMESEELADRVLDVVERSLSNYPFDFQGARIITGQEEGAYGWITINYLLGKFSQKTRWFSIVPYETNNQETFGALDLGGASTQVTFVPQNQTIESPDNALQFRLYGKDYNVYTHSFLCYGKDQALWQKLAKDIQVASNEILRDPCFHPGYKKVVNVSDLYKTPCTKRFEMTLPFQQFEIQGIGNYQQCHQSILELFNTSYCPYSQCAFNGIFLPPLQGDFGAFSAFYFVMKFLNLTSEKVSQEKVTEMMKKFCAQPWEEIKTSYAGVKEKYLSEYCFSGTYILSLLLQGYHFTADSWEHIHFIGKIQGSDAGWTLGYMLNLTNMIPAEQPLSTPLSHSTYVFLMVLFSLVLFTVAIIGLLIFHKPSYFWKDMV
Experimental: (§1) FIG. 2: Inhibition of NTPDases and NPPs by analogues 9-12 using as substrates ATP (100 μM) for NTPDase1,2,3,8 and pNP-TMP (100 μM) for NPP1,3 (Panel A); and ATP (100 μM) was used as the substrate for NPP1 (Panel B);
(§2) At least 2 independent experiments were performed. In panel A, the activity with 100 μM ATP was set as 100%, which was 287±31, 395±67, 278±22, 119±26 nmol of Pi·min−1·mg of protein−1 for human NTPDase1, -2, -3 and -8, respectively, and the activity with 100 μM pNP-TMP was set as 100% which was 67±5, 21±1 nmol of p-nitrophenol·min−1·mg of protein−1 for human NPP1 and NPP3, respectively. In panel B, the activity with 100 μM ATP was set as 100% which was 34±7 nmol of PPi·min−1·mg of protein−1 for NPP1.

NPP1 = target: T2, NPP1 (Homo sapiens, UniProt P22413); assay: Stability to hydrolysis by human NPP1; format: in vitro ADME; conditions: analogue 100 μM; activity with 100 μM ATP = 100%
T2 sequence (P22413 1-925): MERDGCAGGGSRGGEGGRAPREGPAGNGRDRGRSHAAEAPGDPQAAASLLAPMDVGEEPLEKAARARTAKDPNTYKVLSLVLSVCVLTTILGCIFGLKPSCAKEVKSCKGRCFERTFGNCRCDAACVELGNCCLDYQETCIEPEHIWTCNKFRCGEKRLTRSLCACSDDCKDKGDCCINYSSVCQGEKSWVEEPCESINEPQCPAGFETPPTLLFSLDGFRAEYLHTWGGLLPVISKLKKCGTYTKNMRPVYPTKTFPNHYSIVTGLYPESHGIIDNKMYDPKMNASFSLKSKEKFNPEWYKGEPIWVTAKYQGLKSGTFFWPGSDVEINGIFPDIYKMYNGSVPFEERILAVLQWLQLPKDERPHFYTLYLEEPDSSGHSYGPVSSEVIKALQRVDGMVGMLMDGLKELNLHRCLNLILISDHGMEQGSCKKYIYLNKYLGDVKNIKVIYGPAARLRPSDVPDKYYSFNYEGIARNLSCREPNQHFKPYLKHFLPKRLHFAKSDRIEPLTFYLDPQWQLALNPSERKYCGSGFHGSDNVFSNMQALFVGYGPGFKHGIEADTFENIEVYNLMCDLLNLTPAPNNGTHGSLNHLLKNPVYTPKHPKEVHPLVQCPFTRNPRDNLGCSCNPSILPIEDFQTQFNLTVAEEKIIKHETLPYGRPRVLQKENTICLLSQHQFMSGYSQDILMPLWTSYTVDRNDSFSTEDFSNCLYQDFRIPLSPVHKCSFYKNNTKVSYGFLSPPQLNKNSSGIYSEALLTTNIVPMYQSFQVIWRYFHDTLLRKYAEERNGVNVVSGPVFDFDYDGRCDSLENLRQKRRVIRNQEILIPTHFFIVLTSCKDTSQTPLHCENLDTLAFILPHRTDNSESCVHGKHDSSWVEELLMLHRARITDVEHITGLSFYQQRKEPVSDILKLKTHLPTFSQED
Experimental: Uridine 5′-Pα,α-phosphorodithioate analogues, 9-12, were tested for their stability to degradation by NPP1 and NTPDases. These enzymes are involved in the metabolism of extracellular nucleotides. Analogues 9-12 were not hydrolyzed by hNPP1 (Table 2). […] Analogue 10 was hydrolyzed by hNTPDase1, -2 and -3 at 30-39% the rate of ATP and was slightly hydrolyzed by human NTPDase8 at 16% the rate of ATP.
Analogues 9-12 were incubated in the presence of the indicated ectonucleotidase at a concentration of 100 μM. The activity with 100 μM ATP was set as 100%, which was 329±108, 302±34, 263±51, 195±76 nmol of Pi·min−1·mg of protein−1 for NTPDase1, -2, -3 and -8, respectively, and 34±7 nmol for NPP1. Data presented are the mean±SEM of results from two experiments.

[1] = Stability to air-oxidation by 31P-NMR; format: physicochemical; conditions: aqueous solution, constant air flow, RT, 3 weeks
Excerpt: To evaluate the chemical stability of uridine-5′-Pα,α-dithiophosphate analogues, we measured by 31P-NMR the time-dependent percentage of the analogues remaining under basic and acidic conditions, and due to air-oxidation.
An aqueous solution of 10 was subjected to a constant air flow.

NTPDase2 = target: T3, NTPDase2 (Homo sapiens, UniProt Q9Y5L3); assay: Inhibition of ATPase activity of human NTPDase2; format: biochemical; conditions: analogue at 100 μM; ATP 100 μM as substrate
T3 sequence (Q9Y5L3 1-495): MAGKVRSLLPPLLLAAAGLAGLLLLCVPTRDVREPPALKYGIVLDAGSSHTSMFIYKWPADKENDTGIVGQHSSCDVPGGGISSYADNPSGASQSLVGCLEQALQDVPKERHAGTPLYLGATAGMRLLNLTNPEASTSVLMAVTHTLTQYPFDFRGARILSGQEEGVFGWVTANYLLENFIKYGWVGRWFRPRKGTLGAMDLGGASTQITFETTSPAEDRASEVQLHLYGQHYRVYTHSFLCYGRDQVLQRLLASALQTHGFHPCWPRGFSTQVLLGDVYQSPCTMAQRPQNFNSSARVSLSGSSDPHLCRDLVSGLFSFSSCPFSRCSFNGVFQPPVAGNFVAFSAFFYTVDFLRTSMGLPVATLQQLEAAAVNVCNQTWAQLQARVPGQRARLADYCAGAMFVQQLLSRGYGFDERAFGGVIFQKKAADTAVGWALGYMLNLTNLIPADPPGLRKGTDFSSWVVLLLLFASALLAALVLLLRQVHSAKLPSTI
Experimental: as §1, §2

SMILES	inhibition of human NTPDase1 (NTPDase1)	Relative activity (%) ± SEM of ATP hydrolysis, NPP1 (NPP1) [%]	stability to air-oxidation [1]	inhibition of human NTPDase2 (NTPDase2)
O=c1ccn([C@@H]2O[C@H](COP(=S)(S)OP(=O)(O)OP(=O)(O)O)[C@@H](O)[C@H]2O)c(=O)[nH]1 (stereo partly drawn) [Analogue 10]	no inhibition	0	no new signals	no inhibition
O=c1ccn([C@@H]2O[C@H](COP(=S)(S)OP(=O)(O)CP(=O)(O)O)[C@@H](O)[C@H]2O)c(=O)[nH]1 (stereo partly drawn) [Analogue 11]	negligible effects	0	complete stability	negligible effects
O=c1ccn([C@@H]2O[C@H](COP(=S)(S)OP(=O)(O)OP(=O)(O)OP(=S)(S)OC[C@H]3O[C@@H](n4ccc(=O)[nH]c4=O)[C@H](O)[C@@H]3O)[C@@H](O)[C@H]2O)c(=O)[nH]1 (stereo partly drawn) [Analogue 12]	selective to NPP1	0	completely resistant	selective to NPP1
